Data taken from patent publication US8865163B2, “Pharmaceutical compositions and methods of treatment” (priority 2010, dated 2014).

How the values were obtained:
Format in all cases: in vivo
[1] = Body mass growth of C57B1 mice on high (45%) fat diet, 2 months; details: for Body mass (grams): high fat diet
Description: (§1) The test substance was in the form of an aqueous solution of ultra-low doses of polyclonal rabbit antibodies to human cannabinoid receptor type 1 (ULD anti-CB1), purified on antigen, obtained by hyper-dilution of the initial matrix solution 100^12, 100^30, 100^200 times (mixture of centesimal homeopathic dilutions C12, C30, and C200).
33 male mice of the C57B1 line were used in the study (weight at the beginning of the study: 13.09±0.738 g). The mice received the modified diet with high (45%) fat content and simultaneously either distilled water (control, 0.2 ml/mouse) or Subutramine (10 mg/Kg) or ULD anti-CB1 (0.2 ml/mouse). All ULD anti-CB1 preparations were given intragastrically once a day in the course of 2 months. The mice weight was measured on Philips Cucina HR 239016 (Hungary) electronic scales until beginning to introduce the preparations (initially) and also each week after beginning to introduce them. The body mass growth of the mice was evaluated as a percentage of the initial weight.

[2] = Feed consumption and body mass growth of C57B1 mice on high calorie diet, 5 months
Description: as §1
40 male mice of the C57B1 line were used in the study (weight at the beginning of the study: 13.5-15.5 g). 10 mice received the regular standard feed (standard diet); 30 mice received the standard feed with high calorie additives (high calories diet) and, simultaneously, either distilled water (control, 0.4 ml/mouse) or Subutramine (Meridia 10 mg capsules, Abbott GmbH, Germany) (10 mg/Kg) or ULD anti-CB1 (0.4 ml/mouse). All preparations were given intragastrically once a day in the course of 5 months. The mice consumption of feed was measured before test substances were introduced. The mice consumption of feed was also measured each week thereafter. The consumption of feed was evaluated as an average quantity of food (in grams), consumed by a mouse after 1 and 2 months of the study, and as an average quantity of feed per 10 g of mouse body mass.

[3] = Open field test, motor activity of mice given nicotine; details: nicotine 0.3 mg/kg s.c. over 4 days
Description: The effects of I) the combination of ultra-low doses of polyclonal rabbit antibodies to brain-specific protein S-100 (ULD anti-S100) and ultra-low doses of antibodies to cannabinoid receptor type 1 (ULD anti-CB1), each obtained by hyper-dilution of the initial matrix solution 100^12, 100^30, 100^200 times (mixture of centesimal homeopathic dilutions C12, C30, C200) (ULD anti-S100+ULD anti-CB1), ii) ULD anti-CB1 alone, and iii) ULD anti-S100 alone, on motor activity of mice were studied to evaluate their anti-nicotine properties.
40 white outbred male mice (22-25 g, 1.5 mo.) were used. 10 mice were intact. The rest of the mice were administered nicotine subcutaneously over 4 days at the dose of 0.3 mg/kg, Nicotine administration was preceded (1 hour prior) by intragastrical administration of either distilled water (control, 0.4 ml/mouse), or ULD anti-S100 (0.4 ml/mouse), or ULD anti-CB1 (0.4 ml/mouse), or ULD anti-S100+ULD anti-CB1 (0.4 ml/mouse). 30 minutes after the last administration of nicotine, an “open field” test was conducted. The animals were placed in the center of a TruScan photo-sensory installation (Coulbourn, USA), where the vertical and horizontal locomotor activity of the animals was automatically recorded in the course of two (2) minutes. The “open field” model makes it possible to evaluate the effect of the compounds on the locomotor activity of the animals (Gershenfield H. K., Neumann P. E., Mathis C., Crawley J. N., Li X., Paul S. M. Mapping quntative Trait Loci for Open-Field Behavior in Mice. Behavioral Genetics.—1997.—Vol. 27.—No 3.—p. 201-209, which is incorporated herein by reference in its entirety and for the purpose stated). The installation parameters: size 270×270×360 mm, divided into 64 squares, 2.5×2.5, with 25 mm openings situated in the platform floor, illumination of a 150 watt lamp.

## CC(C)CC(N(C)C)C1(c2ccc(Cl)cc2)CCC1 (centres unmarked) [Subutramine]
[1]; week 0 (initial)
  Body mass (grams): 13.82 grams
[1]; week 1
  Δ to initial (body mass growth, percentage of initial weight): −2.6%
  Body mass (grams): 13.45 grams
[1]; week 2
  Δ to initial (body mass growth, percentage of initial weight): 21.1%
  Body mass (grams): 16.73 grams
[1]; week 3
  Δ to initial (body mass growth, percentage of initial weight): 43.4%
  Body mass (grams): 19.82 grams
[1]; week 4
  Δ to initial (body mass growth, percentage of initial weight): 46.1%
  Body mass (grams): 20.18 grams
[1]; week 5
  Δ to initial (body mass growth, percentage of initial weight): 51.3%
  Body mass (grams): 20.91 grams
[1]; week 6
  Δ to initial (body mass growth, percentage of initial weight): 61.8%
  Body mass (grams): 22.36 grams
[1]; week 7
  Δ to initial (body mass growth, percentage of initial weight): 71.1%
  Body mass (grams): 23.64 grams
[1]; week 8
  Δ to initial (body mass growth, percentage of initial weight): 65.8%
  Body mass (grams): 22.91 grams
[2]; average over 5 months, M±m
  Consumption of feed (g per 10 g of body mass) per day: 1.28 ± 0.05 g per 10 g of body mass per da
  Consumption of feed (g/mouse) per day: 2.75 ± 1.36 g/mouse per day
[2]; intragastrically once a day, in a week
  decrease of consumption of feed in reference to the control: 19.3%
[2]; last twentieth week
  lowered body mass in comparison with the control group: 51.5%

## CN1CCCC1c1cccnc1 (centres unmarked) [nicotine]
[3]
  decrease of immobility time in comparison with the intact animals: 13.5%
  increase of activity time in comparison with the intact animals: 8.2%
  increase of distance traveled in comparison with the intact animals: 5.1%
  increase of quantity of openings investigated in comparison with the intact animals: 78.2%
  increase of study reaction time in comparison with the intact animals: 76.9%
